The values below come from ChEMBL document CHEMBL4393668, “Discovery and Characterization of XY101, a Potent, Selective, and Orally Bioavailable RORγ Inverse Agonist for Treatment of Castration-Resistant Prostate Cancer” (J Med Chem, 2019).

Molecules are shown by their SMILES.

In data set [1] the target is T1, Nuclear receptor ROR-gamma (Homo sapiens) (UniProt P51449).
T1 sequence (whole entry): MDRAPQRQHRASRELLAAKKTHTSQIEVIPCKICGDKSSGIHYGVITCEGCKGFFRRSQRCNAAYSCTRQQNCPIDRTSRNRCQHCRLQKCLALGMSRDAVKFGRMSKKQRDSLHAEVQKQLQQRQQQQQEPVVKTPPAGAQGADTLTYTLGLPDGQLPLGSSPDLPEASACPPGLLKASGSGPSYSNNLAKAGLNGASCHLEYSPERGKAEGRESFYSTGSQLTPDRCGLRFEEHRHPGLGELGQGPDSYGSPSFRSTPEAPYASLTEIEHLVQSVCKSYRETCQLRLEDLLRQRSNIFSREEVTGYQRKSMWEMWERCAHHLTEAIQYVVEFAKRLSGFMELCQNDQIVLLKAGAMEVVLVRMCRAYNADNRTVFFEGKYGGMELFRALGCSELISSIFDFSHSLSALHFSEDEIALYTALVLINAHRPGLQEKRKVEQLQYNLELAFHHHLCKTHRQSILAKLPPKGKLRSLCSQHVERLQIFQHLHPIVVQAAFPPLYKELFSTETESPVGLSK

In data set [2] the target is T2, Nuclear receptor ROR-alpha (Homo sapiens, UniProt P35398).
T2 sequence (P35398 whole entry): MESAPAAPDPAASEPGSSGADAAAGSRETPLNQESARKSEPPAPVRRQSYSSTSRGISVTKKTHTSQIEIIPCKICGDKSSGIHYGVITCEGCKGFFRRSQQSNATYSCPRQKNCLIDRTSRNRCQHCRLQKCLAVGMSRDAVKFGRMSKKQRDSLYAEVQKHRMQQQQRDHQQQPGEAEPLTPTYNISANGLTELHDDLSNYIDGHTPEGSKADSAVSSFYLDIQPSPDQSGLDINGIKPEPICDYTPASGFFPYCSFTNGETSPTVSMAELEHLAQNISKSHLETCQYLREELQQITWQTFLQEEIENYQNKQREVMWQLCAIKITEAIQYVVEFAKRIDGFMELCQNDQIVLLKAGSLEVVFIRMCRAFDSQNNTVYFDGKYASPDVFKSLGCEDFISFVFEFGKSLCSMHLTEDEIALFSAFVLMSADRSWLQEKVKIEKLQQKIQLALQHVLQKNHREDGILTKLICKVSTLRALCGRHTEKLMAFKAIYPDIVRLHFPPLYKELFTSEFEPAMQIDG

Data set [3] has as its target T3, Nuclear receptor ROR-beta (Homo sapiens, UniProt Q92753).
T3 sequence (Q92753 whole entry): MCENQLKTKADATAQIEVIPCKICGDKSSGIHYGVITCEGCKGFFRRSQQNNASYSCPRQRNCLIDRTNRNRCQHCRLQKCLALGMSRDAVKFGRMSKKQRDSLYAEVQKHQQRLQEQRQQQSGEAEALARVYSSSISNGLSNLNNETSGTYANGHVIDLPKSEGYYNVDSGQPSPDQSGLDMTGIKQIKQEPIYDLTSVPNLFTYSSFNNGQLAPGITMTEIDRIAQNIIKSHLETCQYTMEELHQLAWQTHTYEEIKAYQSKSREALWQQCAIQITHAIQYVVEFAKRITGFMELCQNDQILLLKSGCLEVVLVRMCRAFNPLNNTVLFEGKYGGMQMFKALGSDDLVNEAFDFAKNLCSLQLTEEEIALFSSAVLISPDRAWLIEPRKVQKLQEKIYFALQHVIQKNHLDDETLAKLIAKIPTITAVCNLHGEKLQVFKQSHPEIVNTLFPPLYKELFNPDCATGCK

For data set [4], the target named is T4, Oxysterols receptor LXR-alpha (Homo sapiens, UniProt Q13133).
T4 sequence (Q13133 whole entry): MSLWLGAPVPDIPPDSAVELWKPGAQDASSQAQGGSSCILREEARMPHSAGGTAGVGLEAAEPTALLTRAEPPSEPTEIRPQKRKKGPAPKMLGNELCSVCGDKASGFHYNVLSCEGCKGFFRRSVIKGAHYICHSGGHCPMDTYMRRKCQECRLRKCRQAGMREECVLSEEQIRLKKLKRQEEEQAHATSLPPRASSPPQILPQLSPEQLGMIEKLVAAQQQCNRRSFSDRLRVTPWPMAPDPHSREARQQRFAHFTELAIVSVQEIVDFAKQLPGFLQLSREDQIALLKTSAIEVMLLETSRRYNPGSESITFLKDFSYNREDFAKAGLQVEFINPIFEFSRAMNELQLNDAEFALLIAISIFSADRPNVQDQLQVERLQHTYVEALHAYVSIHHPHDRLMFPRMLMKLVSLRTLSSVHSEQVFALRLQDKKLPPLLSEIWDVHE

The target of another data set is T5, Bile acid receptor (Homo sapiens, UniProt Q96RI1).
T5 sequence (Q96RI1 whole entry): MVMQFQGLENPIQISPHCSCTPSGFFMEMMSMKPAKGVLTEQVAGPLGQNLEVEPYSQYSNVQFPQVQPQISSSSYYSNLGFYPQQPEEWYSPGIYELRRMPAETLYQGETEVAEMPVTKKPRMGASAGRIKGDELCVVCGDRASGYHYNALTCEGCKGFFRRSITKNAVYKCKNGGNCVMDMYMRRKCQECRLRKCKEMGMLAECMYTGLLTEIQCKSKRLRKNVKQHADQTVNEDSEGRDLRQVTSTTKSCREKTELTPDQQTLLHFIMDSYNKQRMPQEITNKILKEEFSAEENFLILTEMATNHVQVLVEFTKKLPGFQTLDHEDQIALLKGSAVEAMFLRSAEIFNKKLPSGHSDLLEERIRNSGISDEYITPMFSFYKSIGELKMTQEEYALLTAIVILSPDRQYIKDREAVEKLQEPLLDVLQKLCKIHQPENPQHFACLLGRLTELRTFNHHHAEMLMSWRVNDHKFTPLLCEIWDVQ

For data set [5] the following is noted: rat, in vivo, iv, 2 mg/kg.
Description: Apparent volume of distribution in Sprague-Dawley rat at 2 mg/kg, iv
Data set [6] can be described thus: in vivo. The following applies: Sprague-Dawley, rat, iv, 2 mg/kg.
Data set [7] can be described thus: in vivo. The settings on record: Sprague-Dawley, rat, iv, 2 mg/kg. This is another data set of the same source.
A short description of data set [8]: in vivo. The following applies: Sprague-Dawley, rat, iv, 2 mg/kg. This is another data set of the same source.
Data set [9] is described as follows: in vivo. The following applies: Sprague-Dawley, rat, iv, 2 mg/kg. This is another data set of the same source.
Data set [10] is described as follows: in vivo. The settings on record: Sprague-Dawley, rat, iv, 2 mg/kg. This is another data set of the same source.
Description: Half life in Sprague-Dawley rat at 2 mg/kg, iv
A short description of data set [11]: in vivo. The following applies: Sprague-Dawley, rat, po, 10 mg/kg.
The nature of data set [12]: in vivo. The settings on record: Sprague-Dawley, rat, po, 10 mg/kg. The source holds these as a separate data set.
A short description of data set [13]: in vivo. The following applies: Sprague-Dawley, rat, po, 10 mg/kg. This is another data set of the same source.
Data set [14] in a line: in vivo. The settings on record: Sprague-Dawley, rat, po, 10 mg/kg. The source holds these as a separate data set.
Data set [15] is described as follows: in vivo. The following applies: Sprague-Dawley, rat, po, 10 mg/kg. The source holds these as a separate data set.
Description: Half life in Sprague-Dawley rat at 10 mg/kg, po
A further data set in a line: in vitro. The following applies: rat, liver microsomes. (In general: Liver microsomes are a subcellular fraction often used to study metabolism.)

One may read the ΔTm as the change in melting temperature against a reference sample. What is called Cmax is the highest concentration seen after dosing. In general, Tmax refers to the time at which the peak concentration occurs. A word on the AUC(0-t): it is exposure summed from dosing to a finite time, without extrapolation to infinity. A lower AUC(0-t) goes with less exposure. A word on the AUC(0-inf): it is total exposure, with the tail of the curve extrapolated. Read a high AUC(0-inf) as more exposure. What is called half-life is the time needed for the level to fall by half in the phase considered. By bioavailability is commonly meant the share of a dose that reaches the circulation, judged against a reference dose that is usually intravenous. A lower bioavailability goes with poor availability. What is called amount remaining is the share of the starting amount still present when the sample was taken. A high value points to less turnover.

Description for in vitro: Stability in rat liver microsomes assessed as parent compound remaining at 10 uM measured after 60 mins by LC-MS/MS analysis

On to `CS(=O)(=O)c1ccc(CC(=O)Nc2ccc(-c3ccc(C(O)(C(F)(F)F)C(F)(F)F)cc3F)cc2)cc1`, for which, in data set [1], the thermal shift (ΔTm) is 7.8 °C. Besides, the IC50 result (in data set [2]; in [3]; in data set [4]; against Bile acid receptor) was “Not Active” each time. Also, the Vz in data set [5] is 3544 mg/kg. In addition, the Cmax in the data set “in vivo [6]” was found to be 0.98 µg/mL; in the data set “in vivo [11]”, 1.43 µg/mL. Moreover, in the data set “in vivo [7]”, the Tmax was 4.8 min. Also, the AUC(0-t) stood at 7.66 µg·h/mL in “in vivo [8]” and 21.6 µg·h/mL in “in vivo [12]”. In addition, the AUC(0-inf) in “in vivo [9]” worked out at 10.4 µg·h/mL; in “in vivo [14]” it was 24.5 µg·h/mL. Also, the half-life in “in vivo [10]” is 12.7 h; in the data set “in vivo [15]”, 8.67 h. This compound also came in with a bioavailability in “in vivo [13]” of 52%. Moreover, the fraction remaining at 1 h, 10 µM in the data set “in vitro” was 78%.
